Five compounds from patent publication EP0240854A1, “Bis-tert-butylamino-substituted 1,3,5-triazine derivatives, process for their preparation, medicaments containing these compounds, and their use” (HOECHST AKTIENGESELLSCHAFT, priority 1986, dated 1987) can be followed below.

The test system of the first experiment is Pentetrazol-induzierte Krämpfe. The experiment in a line: Antagonism against pentetrazol-induced convulsions (Swinyard). The format is in vivo, Maus. The settings on record: Mus musculus, po, 1 h, p.o., pentetrazol 125 mg/kg s.c. 1 h after test substance, tonic extensor convulsions; read-out: Ptz Maus ED 50. The source says: (§1) Die Krampf-verhindernde (antikonvulsive) Wirkung der erfindungsgemäßen Verbindungen wurde an Mäusen gegen Pentetrazol- und gegen Elektroschock- induzierte Krämpfe in der Anordnung von SWINYARD geprüft.
1. Antagonismus gegen Pentetrazol-induzierte Krämpfe (Maus)
Methode (E.A.SWINYARD, J.Pharmacol.Exp.Ther. 106, (1952), 319-330):
Gruppen von 10 männlichen Mäusen (Stamm: NMRI, SPF-71, KF) im Gewicht von 18-22 g werden in diesem Versuch verwendet. Die zu prüfenden Substanzen werden in einer 1 %-igen Aufschwemmung von ®Tylose (Methyl-hydroxy-ethyl-cellulose) in Wasser suspendiert und per Schlundsonde in einem Volumen von 10 ml/kg Körpergewicht oral verabreicht. Die Kontrollgruppe erhält ein entsprechendes Volumen Tylosesuspension ohne Prüfsubstanz. Pentetrazol (Cardiazol®) wird in wässriger Lösung in einer Dosis von 125 mg/kg Körpergewicht 1 Stunde nach Verabreichung der Prüfsubstanzen subcutan injiziert. Diese Dosis erzeugt bei 90-100 % der Kontrolltiere innerhalb der Beobachtungszeit von 60 Minuten nach der Injektion tonische Extensorkrämpfe der hinteren Extremitä-ten. Als Schutzwirkung der Prüfsubstanz wird gewertet, wenn die Anzahl der krampfenden Tiere gegenüber der Kontrollgruppe vermindert ist. Bei vorhandener Schutzwirkung der Prüfsubstanz wird eine mittlere effektive Dosis (ED-50) grafisch (Litchfield and Wilcoxon) oder rechnerisch (Probitanalyse) ermittelt.
Take `CC(C)(C)Nc1nc(NN2CCOCC2)nc(NC(C)(C)C)n1` [Beispiel 4, 2,4-Bis-(tert.butylamino)-6-(morpholino-amino)-1,3,5-triazin]: the ED50 was determined as 8.3 mg/kg.

On to `CN(C)Nc1nc(NC(C)(C)C)nc(NC(C)(C)C)n1` [Beispiel 6, 2,4-Bis-(tert.butylamino)-6-(Nʹ-dimethylhydrazino)-1,3,5-triazin], for which the ED50 turned out to be 10 mg/kg.

Take `CCN(CC)c1nc(NC(C)(C)C)nc(NC(C)(C)C)n1` [Beispiel 7, 2,4-Bis-(tert.butylamino)-6-diethylamino-1,3,5-triazin]: the ED50 is 6.9 mg/kg.

With `CC(C)(C)Nc1nc(NN2CCCCC2)nc(NC(C)(C)C)n1` [Beispiel 3, 2,4-Bis-(tert.butylamino)-6-(piperidino-amino)-1,3,5-triazin], the ED50 was found to be 3.2 mg/kg.

`CC(C)(C)Nc1nc(NC(C)(C)C)nc(-n2ccnc2)n1` [Beispiel 5]: the ED50 amounted to 12.2 mg/kg.

The subject of the next experiment is Elektroschock-induzierte Krämpfe. Kind of experiment: Antagonism against electroshock-induced convulsions (Swinyard). The format is in vivo. The conditions noted are these: Mus musculus, po, electroshock via corneal electrodes 1 h after test substance, tonic extensor convulsions; read-out: ECS Maus ED 50.
Description: as §1
2. Antagonismus gegen Elektroschock-induzierte Krämpfe (Maus).
Methode (E.A.SWINYARD, In: Experimental Models of Epilepsy, Raven Press, New York, 1972, p. 433-458):
Gruppen von 6 männlichen Mäusen (Stamm: NMRI, SPF-71, KF) im Gewicht von 18-22 g werden in diesem Versuch verwendet. Die zu prüfenden Substanzen werden in einer 1 %igen Aufschwemmung von Tylose (Methyl-hydroxy-ethyl-cellulose) in Wasser suspendiert und per Schlundsonde in einem Volumen von 10 ml/kg Körpergewicht oral verabreicht. Die Kontrollgruppe erhält ein entsprechendes Volumen Tylosesuspension ohne Prüfsubstanz. Eine Stunde nach Prüfsubstanzgabe wird den Tieren über Cornea-Elektroden ein Elektroschock verabreicht (Stromstärke 12-22 mA, Dauer 0,2 sec, 50 Hz), nachdem vorher an einer zweiten Kontrollgruppe die Stromstärke ermittelt worden war, die bei 100 % der Tiere eine tonischen Extensorkrampf der hinteren Extremitäten hervorruft. Die Anzahl der durch die Prüfsubstanz vor einem Extensorkrampf geschützten Tiere dient als Mass der antikonvulsiven Wirkung in diesem Test. Bei vorhandener Schutzwirkung der Prüfsubstanz wird eine mittlere effektive Dosis (ED-50) grafisch (Litchfield and Wilcoxon) oder rechnerisch (Probitanalyse) ermittelt.
On to `CC(C)(C)Nc1nc(NN2CCOCC2)nc(NC(C)(C)C)n1` [Beispiel 4, 2,4-Bis-(tert.butylamino)-6-(morpholino-amino)-1,3,5-triazin], for which the ED50 stood at 30 mg/kg.

With `CN(C)Nc1nc(NC(C)(C)C)nc(NC(C)(C)C)n1` [Beispiel 6, 2,4-Bis-(tert.butylamino)-6-(Nʹ-dimethylhydrazino)-1,3,5-triazin], the ED50 came to 20.7 mg/kg.

Consider `CCN(CC)c1nc(NC(C)(C)C)nc(NC(C)(C)C)n1` [Beispiel 7, 2,4-Bis-(tert.butylamino)-6-diethylamino-1,3,5-triazin], for which the ED50 came out at 14.5 mg/kg.

Take `CC(C)(C)Nc1nc(NN2CCCCC2)nc(NC(C)(C)C)n1` [Beispiel 3, 2,4-Bis-(tert.butylamino)-6-(piperidino-amino)-1,3,5-triazin]: the ED50 is 30 mg/kg.

Regarding `CC(C)(C)Nc1nc(NC(C)(C)C)nc(-n2ccnc2)n1` [Beispiel 5], the ED50 stood at 30 mg/kg.

The test system of the next experiment is Wistar Ratten. The experiment in a line: Lick-shock-conflict test (Vogel). The format is in vivo, Ratte. The settings on record: Rattus norvegicus, po, lowest dose with significant increase of lickings in the shock phase; read-out: Lick-Sh. Ratte MED. The source says:
(§2) Die Angst-lösende (anxiolytische Wirkung) der erfindungsgemäßen Verbindungen wurde im "Lick-shock-conflict- Test" nach VOGEl und im "Geller-Seifter-Konflikt-Test" nach GELLER und SEIFTER an WISTAR-Ratten geprüft.
3. Lick-shock-conflict-Test
Methode (VOGEL, J.R., Psychopharmacologia 21, (1971), 1-7
Männliche Wistar Ratten aus eigener Aufzucht (SPF Hattersheim) im Gewicht zwischen 90 und 120 g werden verwendet. Den Tieren wird für 48 Stunden vor Testbeginn das Trinkwasser entzogen. Zum Test werden die Tiere in eine Plastikbox (14x12x28 cm, BxTxH) gesetzt, die mit einer Wasserflasche mit Metall-Trinkrohr ausgestattet ist und die außerdem erlaubt, über eine elektronische Schaltung die Anzahl der Kontakte der Zunge des Tieres mit dem Trinkrohr zu messen. Der Boden der Box besteht aus Metallstäben, die durch die Steuerungselektronik unter Strom gesetzt werden können. Die Tiere haben nach dem Einsetzen in die Box 5 min. Zeit, um das Trinkrohr zu finden und 50-mal daran zu lekken. Tiere, die das Trinkrohr innerhalb dieser Zeit nicht gefunden haben, werden für den Versuch nicht verwendet. Nach diesen 50 Leckvorgängen (lickings) werden Trinkrohr und Bodenstäbe für jeweils 5 sec unter Strom gesetzt (Gleichstrom 300 µA) und dann für weitere 5 sec. wieder freigegeben. Diese Folge wird alternierend für eine Zeit von 5 min. weitergeführt, wobei die Zahl der Trinkrohr-Kontakte des Tieres während der Reizstrom- und der reizstromfreien Phase auf verschiedenen elektronischen Zählern registriert werden.
Gruppen von jeweils acht Tieren pro Dosis werden mit den Prüfsubstanzen, die in einem 1 %igen Tylose-Gel aufgeschwemmt sind, oral per Schlundsonde behandelt. Das Injektionsvolumen beträgt 5 ml/kg Körpergewicht. Die Prüfung in der obg. Testapparatur erfolgt 1 und 2 Std. nach Applikation der Prüfsubstanzen. Die Anzahl der Trinkrohr-Kontakte in der Reizstrom-Phase dient als Prüf-Variable. Die mittlere Anzahl der Kontakte in dieser Phase bei der Kontrollgruppe wird zu 100 % gesetzt und Zu- oder Abnahme der Kontaktzahl bei den mit Prüfsubstanz behandelten Tieren wird prozentual in Bezug auf die Kontrollgruppe ausgedrückt.
Anxiolytika bewirken in diesem Test gewöhnlich eine deutliche Zunahme der Wasseraufnahme (lickings) in der Reizstrom-Phase gegenüber den unbehandelten Kontrollen. Falls eine lineare oder logarithmische Beziehung zwischen Dosis und Wirkung gegeben ist, wird eine ED + 100 (d.i. die Dosis, die eine Zunahme der Wasseraufnahme um 100 % gegenüber der Kontrollgruppe bewirkt) mittels Regressionsanalyse errechnet. Ist eine lineare Dosisabhängigkeit nicht gegeben, so wird eine minimal effektive Dosis (MED) bestimmt, d.i. die niedrigste Dosis der Prüfsubstanz, die noch eine statistisch signifikante Zunahme der Wasseraufnahme im Vergleich zur Kontrollgruppe bewirkt (p=0,05, DUNNET-Test).
As to `CC(C)(C)Nc1nc(NN2CCOCC2)nc(NC(C)(C)C)n1` [Beispiel 4, 2,4-Bis-(tert.butylamino)-6-(morpholino-amino)-1,3,5-triazin], the minimal effective dose was 10 mg/kg.

With `CN(C)Nc1nc(NC(C)(C)C)nc(NC(C)(C)C)n1` [Beispiel 6, 2,4-Bis-(tert.butylamino)-6-(Nʹ-dimethylhydrazino)-1,3,5-triazin], the minimal effective dose is 10 mg/kg.

As to `CCN(CC)c1nc(NC(C)(C)C)nc(NC(C)(C)C)n1` [Beispiel 7, 2,4-Bis-(tert.butylamino)-6-diethylamino-1,3,5-triazin], the minimal effective dose was 30 mg/kg.

As to `CC(C)(C)Nc1nc(NN2CCCCC2)nc(NC(C)(C)C)n1` [Beispiel 3, 2,4-Bis-(tert.butylamino)-6-(piperidino-amino)-1,3,5-triazin], the minimal effective dose was determined as 10 mg/kg.

On to `CC(C)(C)Nc1nc(NC(C)(C)C)nc(-n2ccnc2)n1` [Beispiel 5], for which the minimal effective dose was 30 mg/kg.

The experiment is the same for the next values; noted with them: Rattus norvegicus, po; 10 mg/kg p.o., increase versus control group; read-out: Lick-Sh. Ratte prozentuale Zunahme der angenommenen Belohnungen (Wasser).
For `CC(C)(C)Nc1nc(NN2CCOCC2)nc(NC(C)(C)C)n1` [Beispiel 4, 2,4-Bis-(tert.butylamino)-6-(morpholino-amino)-1,3,5-triazin], the change in vivo at 10 mg/kg turned out to be 82%.

As for `CN(C)Nc1nc(NC(C)(C)C)nc(NC(C)(C)C)n1` [Beispiel 6, 2,4-Bis-(tert.butylamino)-6-(Nʹ-dimethylhydrazino)-1,3,5-triazin], the change in vivo at 10 mg/kg came out at 103%.

`CC(C)(C)Nc1nc(NN2CCCCC2)nc(NC(C)(C)C)n1` [Beispiel 3, 2,4-Bis-(tert.butylamino)-6-(piperidino-amino)-1,3,5-triazin]: the change in vivo at 10 mg/kg came out at 75%.

Staying with this experiment, now noted: Rattus norvegicus, po; 30 mg/kg p.o., increase versus control group; read-out: Lick-Sh. Ratte prozentuale Zunahme der angenommenen Belohnungen (Wasser).
As for `CCN(CC)c1nc(NC(C)(C)C)nc(NC(C)(C)C)n1` [Beispiel 7, 2,4-Bis-(tert.butylamino)-6-diethylamino-1,3,5-triazin], the change in vivo at 30 mg/kg is 101%.

`CC(C)(C)Nc1nc(NN2CCCCC2)nc(NC(C)(C)C)n1` [Beispiel 3, 2,4-Bis-(tert.butylamino)-6-(piperidino-amino)-1,3,5-triazin]: the change in vivo at 30 mg/kg is 87%.

On to `CC(C)(C)Nc1nc(NC(C)(C)C)nc(-n2ccnc2)n1` [Beispiel 5], for which the change in vivo at 30 mg/kg turned out to be 34%.

A further experiment relates to Wistar Ratten. The experiment in a line: Geller-Seifter conflict test. The format is in vivo, Ratte. The conditions noted are these: 2,5 mg/kg p.o.
Description: as §2
4. Geller-Seifter-Konflikt-Test
Methode (Geller, I.und Seifter, J., Psychopharmacologia 1 (1962), 482):
Männliche Wistar Ratten aus eigener Aufzucht (SPF Hattersheim) im Gewicht zwischen 240 und 370 g werden verwendet und Versuchsgruppen zu je 8 Tieren zugeordnet. Je 4 Tiere werden in Plastikkäfigen (56x38x20 cm) zusammengesetzt und durch abgewogene Futtermengen auf ca. 80 % ihres normalen Körpergewichts gehalten.
Die Tiere werden trainiert, in einer SKINNER-Box eine Taste zu drücken, um eine Belohnung in Form von gesüßter Kondensmilch zu erhalten. Die Box enthält zwei Tasten mit Mikroschaltern, einen Lautsprecher, ein Hauslicht, zwei Signallichter über den Tasten sowie einen Fußboden aus Metallstäben. Das Trainingsschema wurde der Arbeit von GELLER und SEIFTER (1962) in der Modifikation von DAVIDSON & COOK (Psychopharmacologia 15 (1969), 159-168) entlehnt: Jede Sitzung besteht aus vier 15-Minuten-Abschnitten, die alle aus einer 12-minütigen "Variable Interval" (VI) Phase und einer 3-minütigen "Fixed ration" (FR) Phase zusammengesetzt sind. Während der VI-Phase erhalten die Tiere auf Tastendruck Milchbelohnungen in einem durch einen Zufallsgenerator gesteuerten Intervall von 10-110 sec. mit einem Mittelwert um 60 15 sec. Während der FR-Phase erhalten die Tiere für jeden Tastendruck eine Belohnung, zusätzlich wird jedoch bei jedem 3. Tastendruck ein schmerzhafter elektrischer Reiz über die Fussbodenstäbe verabreicht, um eine Konfliktsituation zu erzeugen. Die Stromstärke des elektrischen Reizes wird für jedes Tier individuell so eingestellt (0,3-0,6 mA), daß die Tastendruckrate in der gesamten FR-Phase zwischen 5 und 15 liegt.
Das Training findet an 5 Tagen in der Woche statt, Versuche mit Prüfsubstanzen werden einmal wöchentlich durchgeführt. Da die Tiere als ihre eigene Kontrolle dienen, werden vor jedem Versuch mit Prüfsubstanzen mindestens zwei Vorwerte ohne Prüfsubstanz durchgeführt. Die zu prüfenden Verbindungen werden in einem 1 %igen Tylose-Gel suspendiert und 30 min vor Testbeginn oral per Schlundsonde in einem Volumen von 2 ml/kg verabreicht. Veränderungen der Tastendruckrate in der VI-Phase werden als Beeinflussung der motorischen Aktivität und Steigerung der Tastendruckrate in der FR-Phase werden als Anzeichnen für eine "Antikonflikt-" bzw. "anxiolytische" Wirkung gewertet. Bestimmt wird meist die minimal effektive Dosis (MED) der Prüfsubstanz, d.i. die niedrigste geprüfte Dosis, die noch eine statistisch signifikante Änderung der Tastendruckrate bewirkt (p=0,05; WILCOXON matched pairs signed rank test).
As for `CC(C)(C)Nc1nc(NN2CCOCC2)nc(NC(C)(C)C)n1` [Beispiel 4, 2,4-Bis-(tert.butylamino)-6-(morpholino-amino)-1,3,5-triazin], the “Geller Ratte prozentuale Zunahme der angenommenen Belohnungen (Milch)” value came to 22%.

The same experiment, now with this note: Rattus norvegicus, po, 0.5 h; p.o., 30 min before test, lowest dose with significant change of lever press rate; read-out: Geller Ratte MED.
In the case of `CC(C)(C)Nc1nc(NN2CCOCC2)nc(NC(C)(C)C)n1` [Beispiel 4, 2,4-Bis-(tert.butylamino)-6-(morpholino-amino)-1,3,5-triazin], the minimal effective dose was determined as 2.5 mg/kg.

In the case of `CN(C)Nc1nc(NC(C)(C)C)nc(NC(C)(C)C)n1` [Beispiel 6, 2,4-Bis-(tert.butylamino)-6-(Nʹ-dimethylhydrazino)-1,3,5-triazin], the minimal effective dose worked out at 10 mg/kg.
